These are literature values, as cited in patent EP2837390A1, “Combined Pharmaceutical Preparation for Use in Treating Neuromuscular Disorders” (Universitäts-Kinderspital beider Basel, priority 2013, dated 2015).

The data set relates to mdx mice model. Conditions: long term supplementation for 17-months.

Take `N=C(N)NCCC[C@H](N)C(=O)O` [L-arginine]: the muscle fibrosis result is given as “increased”, the muscle function result is “worsened” and the skeletal deformities result is on record as “increased”.
